{"source": "patent US10125118B2", "about": "“Heteroaryl compounds and their use as therapeutic drugs” (Dong-A Socio Holdings Co., Ltd., priority 2015, dated 2018)", "key": {"[1]": {"test_system": "CD8-MerTK in Ba/F3-CDM cells", "assay": "In cell MER kinase assay, Ba/F3-CDM cell proliferation without IL-3 (Celltiter-Glo)", "assay_type": "cell-based, murine", "details": "48 hours compound treatment, read-out: Cell growth inhibition (GI50)", "experimental": "To establish an in cell kinase assay for MerTK kinase, the IL-3 dependent Ba/F3 cells of murine lymphoid origin was transfected with CD8-MerTK. […] For a routine cellular assay, Ba/F3-CDM cells were seeded at 2,000 cells per well in 384-well cell culture plate containing DMEM/10% FBS culture media and incubated for 24 hours before addition of compounds pre-diluted in culture media. Following compound treatment, cells were further incubated for 48 hours and the proliferation was measured. To discriminate a Ba/F3 growth inhibition by a specific inhibition of MerTK kinase following compound treatment vs growth inhibition due to a non-specific unintended cytotoxicity of compounds, we routinely carried out control sets of Ba/F3 cells in parallel that grown in IL3-supplemented growth media. In the presence of IL-3, the proliferation of Ba/F3 is no longer dependent on the MerTK activity. Cell growth and proliferation was measured with Celltiter-Glo™ system (Promega, USA) according to the manufacturer's instruction. The half-maximal growth inhibitory concentration (GI50) value was calculated with Prism6.0 software (GraphPad, USA)."}, "[2]": {"molecular_target": "human c-MER catalytic domain (Homo sapiens (Human), UniProt Q12866)", "sequence (Q12866 587-858)": "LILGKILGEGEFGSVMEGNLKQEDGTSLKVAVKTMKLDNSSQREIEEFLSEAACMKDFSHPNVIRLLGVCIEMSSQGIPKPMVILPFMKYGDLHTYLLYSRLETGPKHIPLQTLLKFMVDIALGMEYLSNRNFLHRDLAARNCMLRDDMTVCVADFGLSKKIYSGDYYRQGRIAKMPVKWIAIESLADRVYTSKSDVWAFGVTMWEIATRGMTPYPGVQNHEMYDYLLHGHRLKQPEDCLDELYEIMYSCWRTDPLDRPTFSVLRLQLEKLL", "assay": "LanthaScreen TR-FRET kinase assay, c-MER", "details": "read-out: Mer TK inhibition (IC50); Biochemical IC50, TR-FRET, 10 uM ATP"}}, "note": "pIC50: −log10 of the molar value.", "data": [{"smiles": "C[C@H](c1ccc(-c2ccc(CO[C@H]3CCC[C@@H]3NC(=O)c3cc(-c4cnn(C)c4)cnc3N)cc2)cc1)N1CCN(C)CC1", "note": "[Example 214, 2-amino-5-(1-methyl-1H-pyrazol-4-yl)-N-((1S,2S)-2-((4′-((R)-1-(4-methylpiperazin-1-yl)ethyl)-[1,1′-biphenyl]-4-yl)methoxy)cyclopentyl)nicotinamide]", "values": [{"measurement": "GI50", "setting": "[1]", "value": "< 100", "unit": "nM"}, {"measurement": "pIC50", "setting": "[2]", "value": "> 8.00"}]}, {"smiles": "CC(c1ccc(-c2ccc(CO[C@H]3CCC[C@@H]3NC(=O)c3cc(-c4cccnc4F)cnc3N)cc2)cc1)N1CCN(CCO)CC1", "note": "(stereo partly drawn) [Example 238, 6-amino-2′-fluoro-N-((1S,2S)-2-((4′-(1-(4-(2-hydroxyethyl)-piperazin-1-yl)ethyl)-[1,1′-biphenyl]-4-yl)methoxy)cyclopentyl)-[3,3′-bipyridine]-5-carboxamide]", "values": [{"measurement": "GI50", "setting": "[1]", "value": "< 100", "unit": "nM"}, {"measurement": "pIC50", "setting": "[2]", "value": "> 8.00"}]}, {"smiles": "Cn1cc(-c2cnc(N)c(C(=O)N[C@H]3CCC[C@@H]3OCc3ccc(-c4ccc(CN5CCN(C6CC6)CC5)cc4)cc3)c2)cn1", "note": "[Example 184, 2-amino-N-((1S,2S)-2-((4′-((4-cyclopropylpiperazin-1-yl)methyl)-[1,1′-biphenyl]-4-yl)methoxy)cyclopentyl)-5-(1-methyl-1H-pyrazol-4-yl)nicotinamide]", "values": [{"measurement": "GI50", "setting": "[1]", "value": "< 100", "unit": "nM"}, {"measurement": "pIC50", "setting": "[2]", "value": "> 8.00"}]}, {"smiles": "CN1CCN(Cc2c(F)cc(-c3ccc(CO[C@H]4CCC[C@@H]4NC(=O)c4cc(-c5cnn(C)c5)cnc4N)cc3)cc2F)CC1", "note": "[Example 196, 2-amino-N-((1S,2S)-2-((3′,5′-difluoro-4′-((4-methylpiperazin-1-yl)methyl)-[1,1′-biphenyl]-4-yl)methoxy)cyclopentyl)-5-(1-methyl-1H-pyrazol-4-yl)nicotinamide]", "values": [{"measurement": "GI50", "setting": "[1]", "value": "100 to 500", "unit": "nM"}, {"measurement": "pIC50", "setting": "[2]", "value": "> 8.00"}]}, {"smiles": "CCc1cc(CO[C@H]2CCC[C@@H]2NC(=O)c2cc(-c3ccc(C(C)(C)N4CCN(CCO)CC4)cc3)cnc2N)ccc1C", "note": "[Example 360, 2-amino-N-((1S,2S)-2-((3-ethyl-4-methylbenzyl)oxy)cyclopentyl)-5-(4-(2-(4-(2-hydroxyethyl)piperazin-1-yl)propan-2-yl)phenyl)nicotinamide]", "values": [{"measurement": "GI50", "setting": "[1]", "value": "> 1000", "unit": "nM"}, {"measurement": "pIC50", "setting": "[2]", "value": "> 8.00"}]}, {"smiles": "Cc1cc(-c2ccc(CO[C@H]3CCC[C@@H]3NC(=O)c3cc(-c4cnn(C)c4)cnc3N)cc2)ccc1CN1CCN(C)CC1", "note": "[Example 198, 2-amino-5-(1-methyl-1H-pyrazol-4-yl)-N-((1S,2S)-2-((3′-methyl-4′-((4-methylpiperazin-1-yl)methyl)-[1,1′-biphenyl]-4-yl)methoxy)cyclopentyl)-nicotinamide]", "values": [{"measurement": "GI50", "setting": "[1]", "value": "< 100", "unit": "nM"}, {"measurement": "pIC50", "setting": "[2]", "value": "> 8.00"}]}, {"smiles": "CCc1cc(CO[C@H]2CNC[C@@H]2NC(=O)c2cc(-c3ccc(NS(C)(=O)=O)cc3)cnc2N)ccc1C", "note": "[Example 401, 2-amino-N-((3S,4S)-4-((3-ethyl-4-methylbenzyl)oxy)pyrrolidin-3-yl)-5-(4-(methylsulfonamido)phenyl)nicotinamide]", "values": [{"measurement": "GI50", "setting": "[1]", "value": "> 1000", "unit": "nM"}, {"measurement": "pIC50", "setting": "[2]", "value": "> 8.00"}]}, {"smiles": "CC(c1ccc(-c2ccc(CO[C@H]3CN(C)C[C@@H]3NC(=O)c3cc(-c4cnn(C)c4)cnc3N)cc2)cc1)N1CCN(C)CC1", "note": "(stereo partly drawn) [Example 439, 2-amino-5-(1-methyl-1H-pyrazol-4-yl)-N-((3S,4S)-1-methyl-4-((4′-(1-(4-methylpiperazin-1-yl)ethyl)-[1,1′-biphenyl]-4-yl)methoxy)pyrrolidin-3-yl)-nicotinamide]", "values": [{"measurement": "GI50", "setting": "[1]", "value": "100 to 500", "unit": "nM"}, {"measurement": "pIC50", "setting": "[2]", "value": "> 8.00"}]}, {"smiles": "CCc1cc(CO[C@H]2CNC[C@@H]2NC(=O)c2cc(-c3ccc(N(C)C)cc3)cnc2N)ccc1C", "note": "[Example 405, 2-amino-5-(4-(dimethylamino)phenyl)-N-((3S,4S)-4-((3-ethyl-4-methylbenzyl)oxy)pyrrolidin-3-yl)nicotinamide]", "values": [{"measurement": "GI50", "setting": "[1]", "value": "100 to 500", "unit": "nM"}, {"measurement": "pIC50", "setting": "[2]", "value": "> 8.00"}]}, {"smiles": "CCc1cc(CO[C@H]2CNC[C@@H]2NC(=O)c2cc(-c3ccc(C(=O)NC4CCN(C)CC4)cc3)cnc2N)ccc1C", "note": "[Example 419, 2-amino-N-((3S,4S)-4-((3-ethyl-4-methylbenzyl)oxy)pyrrolidin-3-yl)-5-(4-((1-methylpiperidin-4-yl)carbamoyl)phenyl)nicotinamide]", "values": [{"measurement": "GI50", "setting": "[1]", "value": "> 1000", "unit": "nM"}, {"measurement": "pIC50", "setting": "[2]", "value": "> 8.00"}]}, {"smiles": "C[C@@H]1CN(Cc2ccc(-c3ccc(CO[C@H]4CCC[C@@H]4NC(=O)c4cc(-c5cnn(C)c5)cnc4N)c(F)c3)cc2)C[C@H](C)N1C", "note": "[Example 157, 2-amino-N-((1S,2S)-2-((3-fluoro-4′-((cis-3,4,5-trimethylpiperazin-1-yl)methyl)-[1,1′-biphenyl]-4-yl)methoxy)cyclopentyl)-5-(1-methyl-1H-pyrazol-4-yl)-nicotinamide]", "values": [{"measurement": "GI50", "setting": "[1]", "value": "100 to 500", "unit": "nM"}, {"measurement": "pIC50", "setting": "[2]", "value": "> 8.00"}]}, {"smiles": "C[C@@H]1CN(C)CCN1Cc1ccc(-c2ccc(CO[C@H]3CCC[C@@H]3NC(=O)c3cc(-c4cnn(C)c4)cnc3N)cc2)cc1", "note": "[Example 187, 2-amino-N-((1S,2S)-2-((4′-(((R)-2,4-dimethylpiperazin-1-yl)-methyl)-[1,1′-biphenyl]-4-yl)methoxy)cyclopentyl)-5-(1-methyl-1H-pyrazol-4-yl)-nicotinamide]", "values": [{"measurement": "GI50", "setting": "[1]", "value": "< 100", "unit": "nM"}, {"measurement": "pIC50", "setting": "[2]", "value": "> 8.00"}]}, {"smiles": "Cn1cc(-c2cnc(N)c(C(=O)N[C@H]3COC[C@@H]3OCc3ccc(-c4ccc(C(C)(C)N5CCN(CCO)CC5)cc4)cc3)c2)cn1", "note": "[Example 453, 2-amino-N-((3S,4R)-4-((4′-(2-(4-(2-hydroxyethyl)piperazin-1-yl)-propan-2-yl)-[1,1′-biphenyl]-4-yl)methoxy)tetrahydrofuran-3-yl)-5-(1-methyl-1H-pyrazol-4-yl)nicotinamide]", "values": [{"measurement": "GI50", "setting": "[1]", "value": "100 to 500", "unit": "nM"}, {"measurement": "pIC50", "setting": "[2]", "value": "> 8.00"}]}, {"smiles": "Cn1cc(-c2cnc(N)c(C(=O)N[C@H]3COC[C@@H]3OCc3ccc(-c4ccc(CN5CCN(CCO)CC5)c(C(F)(F)F)c4)cc3)c2)cn1", "note": "[Example 452, 2-amino-N-((3S,4R)-4-((4′-((4-(2-hydroxyethyl)piperazin-1-yl)-methyl)-3′-(trifluoromethyl)-[1,1′-biphenyl]-4-yl)methoxy)tetrahydrofuran-3-yl)-5-(1-methyl-1H-pyrazol-4-yl)nicotinamide]", "values": [{"measurement": "GI50", "setting": "[1]", "value": "< 100", "unit": "nM"}, {"measurement": "pIC50", "setting": "[2]", "value": "> 8.00"}]}, {"smiles": "CCc1cc(CO[C@H]2CNC[C@@H]2NC(=O)c2cc(-c3ccc(CO)cc3)cnc2N)ccc1C", "note": "[Example 389, 2-amino-N-((3S,4S)-4-((3-ethyl-4-methylbenzyl)oxy)pyrrolidin-3-yl)-5-(4-(hydroxymethyl)phenyl)nicotinamide]", "values": [{"measurement": "GI50", "setting": "[1]", "value": "100 to 500", "unit": "nM"}, {"measurement": "pIC50", "setting": "[2]", "value": "> 8.00"}]}, {"smiles": "C[C@@H]1CN(C)[C@@H](C)CN1Cc1ccc(-c2ccc(CO[C@H]3CCC[C@@H]3NC(=O)c3cc(-c4cnn(C)c4)cnc3N)cc2)cc1", "note": "[Example 192, 2-amino-5-(1-methyl-1H-pyrazol-4-yl)-N-((1S,2S)-2-((4′-(((2R,5S)-2,4,5-trimethylpiperazin-1-yl)methyl)-[1,1′-biphenyl]-4-yl)methoxy)cyclopentyl)nicotinamide]", "values": [{"measurement": "GI50", "setting": "[1]", "value": "< 100", "unit": "nM"}, {"measurement": "pIC50", "setting": "[2]", "value": "> 8.00"}]}, {"smiles": "Nc1ncc(-c2ccc(F)nc2)cc1C(=O)N[C@H]1CCC[C@@H]1OCc1ccc(-c2ccc(C3(N4CCN(CCO)CC4)CC3)cc2)cc1", "note": "[Example 228]", "values": [{"measurement": "GI50", "setting": "[1]", "value": "100 to 500", "unit": "nM"}, {"measurement": "pIC50", "setting": "[2]", "value": "> 8.00"}]}, {"smiles": "Cc1cscc1-c1cnc(N)c(C(=O)N[C@H]2CCC[C@@H]2OCc2ccc(-c3ccc(CN4CCN(C)CC4)cc3)cc2)c1", "note": "[Example 385, 2-amino-N-((1S,2S)-2-((4′-((4-methylpiperazin-1-yl)methyl)-[1,1′-biphenyl]-4-yl)methoxy)cyclopentyl)-5-(4-methylthiophen-3-yl)nicotinamide]", "values": [{"measurement": "GI50", "setting": "[1]", "value": "100 to 500", "unit": "nM"}, {"measurement": "pIC50", "setting": "[2]", "value": "> 8.00"}]}]}
